From patent US7960483B2, “Adamantane derivative, composition comprising the derivative, and optical and electronic member using the composition” (Idemitsu Kosan Co., Ltd., priority 2006, dated 2011)

Tests used:
[1] = Compatibility test with bisphenol A (BPA) epoxy resin; format: physicochemical; settings: 2.1 g sample + 0.9 g Epikote 828, mixed at 100-130° C., stood at room temperature; time until crystals begin precipitating
Description: A sample (2.1 g) and 0.9 g of a BPA epoxy resin (Epikote 828 manufactured by Japan Epoxy Resin Co., Ltd.) were heated to 100° C. to 130° C. and mixed. When a uniform mixture was confirmed to be obtained, the mixture was cooled to room temperature and allowed to quiescently stand to observe the precipitation of crystals with naked eyes and to determine the time period required for the crystals to begin precipitating. When the crystals began precipitating within 0 to 2 days, the evaluation was rated “C”. When 3 to 6 days were required, the evaluation was rated “B”. When no crystals were precipitated even when 7 days had passed, the evaluation was rated “A”.

[2] = Solubility test in cyclohexanone; settings: saturation solubility at room temperature, liquid chromatography, about 3 days
Description: To 2 g of a sample 1 g of cyclohexanone was added. The mixture was heated to 80° C. to dissolve the sample and cooled to room temperature. Then seed crystals were added thereto and stirred. The solubility (unit: % by mass) of the sample in the solution was measured by liquid chromatography. Such stirring and measurement by liquid chromatography procedures were repeated for about 3 days. The saturation solubility represents the solubility value at which the measured solubility no longer changed.

| Solubility in cyclohexanone [2] [% by mass] | Compound | Compatibility with BPA type epoxy resin [1] |
| --- | --- | --- |
| 33 | Cc1cc(C23CC4CC(C2)CC(c2ccc(OCC5CO5)c(C)c2)(C4)C3)ccc1OCC1CO1 (stereo not drawn) [BMP13-EPO, 1,3-bis(4-glycidyloxy-3-methylphenyl)adamantane] | B (When 3 to 6 days were required, the evaluation was rated “B”) |
| 35 | Cc1cc(C23CC4CC(C2)CC(c2cc(C)c(OCC5CO5)c(C)c2)(C4)C3)cc(C)c1OCC1CO1 (stereo not drawn) [BDMP13-EPO, 1,3-bis(4-glycidyloxy-3,5-dimethylphenyl)adamantane] | A (When no crystals were precipitated even when 7 days had passed, the evaluation was rated “A”) |

Further lines, the compound ahead of its results:

| Compound | Solubility in cyclohexanone [2] [% by mass] | Compatibility with BPA type epoxy resin [1] |
| --- | --- | --- |
| Cc1cc(C2(c3cc(C)c(OCC4CO4)c(C)c3)C3CC4CC(C3)CC2C4)cc(C)c1OCC1CO1 (stereo not drawn) [BDMP22-EPO, 2,2-bis(4-glycidyloxy-3,5-dimethylphenyl)adamantane] | 32 | B (When 3 to 6 days were required, the evaluation was rated “B”) |
| c1cc(OCC2CO2)c(C2CCCCC2)cc1C12CC3CC(C1)CC(c1ccc(OCC4CO4)c(C4CCCCC4)c1)(C3)C2 (stereo not drawn) [BCHP13-EPO, 1,3-bis(4-glycidyloxy-3-cyclohexylphenyl)adamantane] | 46 | A (When no crystals were precipitated even when 7 days had passed, the evaluation was rated “A”) |
| 1,3-bis(glycidyloxyphenyl)adamantane [BP13-EPO, reference compound] | – | C (When the crystals began precipitating within 0 to 2 days, the evaluation was rated “C”) |
